Laboratory results taken from patent publication US20250057961A1, “BLOOD-BRAIN BARRIER PENETRATING DRUG DELIVERY SYSTEM USING SIALYLLACTOSE” (GENECHEM INC., priority 2021, published 2025).
Entries after “also recorded” stand apart in the source; their conditions may differ. Read-outs that look alike come from different tables or passages of the source.

Columns and labels:
[1] = Blood-brain barrier penetration experiment: brain fluorescence of Cy5.5-attached substances (IVIS spectrum CT, in vivo and extracted brain); conditions: for brain penetration (fluorescence signal in the brain): Cy5.5-attached substance, into the veins, up to 24 hours, FIGS. 1-3
Experimental: (§1) First, the fluorescent substance Cy5.5 (Genechem, Cat no. GCCD0064) was attached to each of lactose, 2,3-sialyllactose (GCB100) and 2,6-sialyllactose (GCB200), and each substance was dissolved and diluted in 10% DMSO, thus preparing samples (final DMSO concentration is approximately 2% of the total volume). After administering each sample at 1 mol/kg into the veins of BALB/c nude mice, the fluorescence signals in the brains of the nude mice were measured at different time points (1, 2, 4, 6, 8, and 24 hours) using the IVIS spectrum CT (Perkin Elmer).
(§2) Next, the fluorescent substance Cy5.5 (Genechem, Cat no. GCCD0064) was attached to each of sialic acid, 2,3-sialyllactose (GCB100) and 2,6-sialyllactose (GCB200), and each substance was dissolved and diluted in 10% DMSO, thus preparing samples (final DMSO concentration is approximately 2% of the total volume). After administering each sample at 1 mol/kg into the veins of BALB/c nude mice, the fluorescence signals in the brains of the nude mice were measured at different time points (10 min, 30 min, 1, 2, 4, 6, 8, and 24 hours) using the IVIS spectrum CT (Perkin Elmer). 24 hours after administration, the nude mice were perfused with saline solution, the brains were extracted, and fluorescence present in the brains was measured.
(§3) The experiment was conducted in the same manner as the above-described experiment on blood-brain barrier penetration of sialyllactose.
(§4) Here, Cy5.5 alone and gemcitabine attached to only Cy5.5 were used as controls. First, each material was dissolved and diluted in 10% DMSO, thus preparing samples (final DMSO concentration is approximately 2% of the total volume). After administering each sample at 1 mol/kg into the veins of BALB/c nude mice, the fluorescence signals in the brains of the nude mice were measured at different time points (10 min, 30 min, 1, 2, 4, 6, 8, and 24 hours) using the IVIS spectrum CT (Perkin Elmer). 24 hours after administration, the nude mice were perfused with saline solution, the brains were extracted, and fluorescence present in the brains was measured.

[2] = Brain tissue penetration and substance dissociation (LC-MS/MS of tissue homogenate supernatant); type: in vivo
Experimental: To examine the distribution and dissociation of sialyllactose-conjugated methotrexate in tissues, GCB017 was administered and the presence of GCB017 and its dissociates (linker-6′SL (L-6′SL) and linker) in the brain and pancreas was checked. Specifically, GCB017 was dissolved and diluted in 10% DMSO, thus preparing a sample (final DMSO concentration was approximately 2% of the total volume). The sample was administered intravenously (IV) at a dose of 80 mg/kg or administered orally (PO) at a dose of 80 mg/kg. Then, at different time points (0, 0.5, 2, and 4 hours), the animals were anesthetized, heart blood was collected, saline solution was perfused, and the brain and pancreas were extracted. Each of the extracted tissues was homogenized in 50 mM Tris-HCl buffer (pH 7.5) at a ratio of 1:5 and centrifuged at 3,000 rpm and 4° C. for 20 minutes, and the supernatant was collected and subjected to mass spectrometry (SCIEX Triple Quad 3500 LC-MS/MS system).
The sample was administered intravenously (IV) at a dose of 80 mg/kg or administered orally (PO) at a dose of 246 mg/kg. Then, at different time points (0, 0.5, 2, and 4 hours), the animals were anesthetized, heart blood was collected, saline solution was perfused, and the brain and pancreas were extracted. Each of the extracted tissues was homogenized in 50 mM Tris-HCl buffer (pH 7.5) at a ratio of 1:5 and centrifuged at 3,000 rpm and 4° C. for 20 minutes, and the supernatant was collected and subjected to mass spectrometry (SCIEX Triple Quad 3500 LC-MS/MS system).

U-87MG = assay: Anticancer efficacy in mouse brain cancer model (luciferase-expressing U-87MG transplanted into brain, optical imaging); type: in vivo; conditions: intravenously twice a week, 8 times for 4 weeks; GCB017 22 mol/kg; days 20, 24, 27; FIG. 13
Experimental: The brain cancer model was produced by transplanting U-87MG, a brain cancer cell line that expresses luciferase. For transplantation into the brain, each animal was anesthetized by isoflurane injection and fixed on a stereotaxic arm, and the head skin was incised vertically by about 1 cm and the injection site was exposed using a micro drill. The cell line was transferred into a 25-μl Hamilton syringe equipped with a 31-gauge needle, and then the cell line was transplanted at a rate of 1 i/min to an area 1 mm anterior, 2 mm lateral, and 3 mm deep based on bregma. After cell line transplantation, in order to prevent reflux and ensure good absorption, the syringe was maintained for about 10 minutes and separated, and the incision was sutured and disinfected. After confirming that the anesthesia had worn off, the animals were reared normally. Starting 1 week after model production, each of methotrexate and GCB017 was administered intravenously twice a week for a total of 8 times for 4 weeks, and the size of the brain tumor was measured by optical imaging (FIG. 13). […] In combination with the results of Examples 3-2 and 3-3 above, it is believed that the sialyllactose-methotrexate conjugate according to the present invention has an improved BBB penetration ability compared to methotrexate and inhibits tumor formation and growth.

[3] = mouse, in vivo
Experimental: as §1, §2, §3, §4

BxPC-3 = conditions: 5, 10, 20 and 40 nM, 72 hours, FIG. 16A
PARP = conditions: BxPC-3, 5-40 nM, 72 hours, FIG. 16B
Caspase-3 = conditions: BxPC-3, 5-40 nM, 72 hours, FIG. 16B

2,3-sialyllactose [GCB100]
brain penetration (fluorescence signal in the brain) [1]: well delivered to the brain, compared to lactose-bound Cy5.5

2,6-sialyllactose [GCB200]
brain penetration (fluorescence signal in the brain) [1]: well delivered to the brain, compared to lactose-bound Cy5.5; also recorded: the effect of 2,6-sialyllactose was higher than that of 2,3-sialyllactose

CCN1\C(=C/C=C/C=C/C2=[N+](CCCCCC(=O)O)c3ccc4c(S(=O)(=O)O)cc(S(=O)(=O)O)cc4c3C2(C)C)C(C)(C)c2c1ccc1c(S(=O)(=O)[O-])cc(S(=O)(=O)O)cc21 [Cy5.5, reference compound]
brain penetration (fluorescence signal in the brain) [1]: barely penetrated the blood-brain barrier | brain penetration (fluorescence signal in the brain) of sialyllactose-conjugated dopamine ([1]; Cy5.5-attached, controls Cy5.5-dopamine or Cy5.5, FIGS. 5, 6, 8, 9): barely detected in the brain

CC(=O)N[C@H]1[C@H]([C@H](O)[C@H](O)CO)O[C@@](OC[C@H]2O[C@@H](O[C@H]3[C@H](O)[C@@H](O)[C@H](OCCCCCCNC(=O)CC[C@H](NC(=O)c4ccc(N(C)Cc5cnc6nc(N)nc(N)c6n5)cc4)C(=O)O)O[C@@H]3CO)[C@H](O)[C@@H](O)[C@H]2O)(C(=O)O)C[C@@H]1O [GCB017]
presence of GCB017 and its dissociates in brain tissue ([2]; 80 mg/kg IV or 80 mg/kg PO): detected in the brain tissue not only when GCB017 was administered intravenously but also when administered orally | level at 2 h ([2]; brain, iv, 80 mg/kg, GCB017 80 mg/kg IV, 2 h, single animals): 52.7 ng/mL | level at 4 h ([2]; brain, po, 80 mg/kg, GCB017 80 mg/kg PO, 4 h, single animals): 30.3 ng/mL | size of the brain tumor (U-87MG): tumor formation was delayed and the tumor size was also controlled | fluorescence signal in the brain of sialyllactose-conjugated methotrexate [3]: a strong fluorescence signal appeared

CN(Cc1cnc2nc(N)nc(N)c2n1)c1ccc(C(=O)N[C@@H](CCC(=O)O)C(=O)O)cc1 [methotrexate, reference compound]
size of the brain tumor (U-87MG): the tumor size also tended to increase gradually starting from day 20 | fluorescence signal in the brain of sialyllactose-conjugated methotrexate ([1]; Cy5.5-attached, time-dependent and extracted brain at 24 hours, FIGS. 11, 12): almost no fluorescence signal appeared in the brain

CC(=O)N[C@H]1[C@H]([C@H](O)[C@H](O)CO)OC(O)(C(=O)O)C[C@@H]1O (stereo partly drawn) [sialic acid, reference compound]
brain penetration (fluorescence signal in the brain) [3]: brain penetration remained at a similar level

gemcitabine-succinate-aminohexyl-6′SL [GCB034]
cell viability (anticancer effect) (BxPC-3): induce cancer cell death at all treatment concentrations, but also exhibited a higher anticancer effect than gemcitabine | decrease in the pro-form of PARP (PARP): significant in a concentration-dependent manner | increase in Caspase-3 cleavage (Caspase-3): significant in a concentration-dependent manner
